{"source": "BindingDB's records for doi:10.1016/j.bmcl.2013.01.056", "about": "(Fudan University, 2013)", "data": [{"target": "Signal transducer and activator of transcription 3 (Homo sapiens, UniProt P40763)", "sequence (P40763 whole entry)": "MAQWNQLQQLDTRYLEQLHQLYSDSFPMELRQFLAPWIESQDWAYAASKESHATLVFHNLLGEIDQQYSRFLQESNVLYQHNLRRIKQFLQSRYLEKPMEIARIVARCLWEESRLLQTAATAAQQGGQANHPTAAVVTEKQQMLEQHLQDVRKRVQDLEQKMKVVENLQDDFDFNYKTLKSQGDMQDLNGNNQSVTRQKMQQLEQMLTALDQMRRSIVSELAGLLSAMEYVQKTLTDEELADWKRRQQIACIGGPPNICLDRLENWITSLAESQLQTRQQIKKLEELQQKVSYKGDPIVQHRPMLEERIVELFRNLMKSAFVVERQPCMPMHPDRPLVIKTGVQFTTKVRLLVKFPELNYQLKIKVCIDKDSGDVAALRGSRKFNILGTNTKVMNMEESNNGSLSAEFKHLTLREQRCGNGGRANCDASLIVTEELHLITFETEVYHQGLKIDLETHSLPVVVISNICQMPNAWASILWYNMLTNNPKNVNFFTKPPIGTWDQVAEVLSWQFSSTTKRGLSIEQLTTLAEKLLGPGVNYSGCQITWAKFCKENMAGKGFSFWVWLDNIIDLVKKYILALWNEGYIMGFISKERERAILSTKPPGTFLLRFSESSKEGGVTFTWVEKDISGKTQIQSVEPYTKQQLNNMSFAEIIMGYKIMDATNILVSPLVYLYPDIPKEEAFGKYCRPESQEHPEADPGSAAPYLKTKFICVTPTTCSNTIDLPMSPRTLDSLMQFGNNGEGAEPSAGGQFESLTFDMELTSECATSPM", "experiment": "Inhibition of IL-6-induced STAT3 pathway in human HepG2 cells by luciferase reporter gene assay", "units": {"IC50": "µM"}, "values": [{"smiles": "OCCNCc1cc(Br)ccc1OCc1ccc(Cl)cc1", "IC50": 59.9}, {"smiles": "NS(=O)(=O)c1ccc(NCc2cc(Cl)ccc2OCc2ccccc2)cc1", "IC50": 24.3}, {"smiles": "Oc1ccc(NCc2cc(Cl)ccc2OCc2ccc(Cl)cc2)cc1", "IC50": 26.7}]}]}
